Data published in patent publication US12679812B2, “18F-labeled triazole containing PSMA inhibitors” (Cornell University, priority 2016, dated 2026).
“And” between values parts separate entries of the source, which are not always exact repeats. Equal values may be shown once. Read-outs that look alike come from different tables or passages of the source. Marks after values point to notes of the source that are not given here.

Assays:
LNCaP tumor [1] = conditions: literature value, cited from earlier work
PSMA on LNCaP cells = molecular target: T1, PSMA on LNCaP cells (Homo sapiens, UniProt Q04609); assay: Competitive binding assay against 99mTc-MIP-1427 for binding to PSMA on LNCaP cells; conditions: non-radioactive fluorine-containing ligands, 1 nM 99mTc-MIP-1427, 1 hour
T1 construct: host or cells: LNCaP
Protocol: Cell Culture. The human prostate cancer cell line, LNCaP, was obtained from the American Type Culture Collection. Cell culture supplies were from Invitrogen unless otherwise noted. LNCaP cells were maintained in RPMI-1640 medium supplemented with 10% fetal bovine serum (Hyclone), 4 mM L-glutamine, 1 mM sodium pyruvate, 10 mM N-2-hydroxyethylpiperazine-N-2-ethanesulfonic acid (HEPES), 2.5 mg/mL D-glucose, and 50 μg/mL gentamicin in a humidified incubator at 37° C./5% C02. Cells were removed from flasks for passage or for transfer to 12-well assay plates by incubating them with 0.25% trypsin/ethylenediaminetetraacetic acid (EDTA).
In vitro determination of IC50. IC50 values of the non-radioactive fluorine-containing ligands were determined by screening in a multi-concentration competitive binding assay against ^99mTc-((7S,12S,16S)-1-(1-(carboxymethyl)-1H-imidazol-2-yl)-2-((1-(carboxymethyl)-1H-imidazol-2-yl)methyl)-9,14-dioxo-2,8,13,15-tetraazaoctadecane-7,12,16,18-tetracarboxylic acid technetium tricarbonyl complex) (^99mTc-MIP-1427) for binding to PSMA on LNCaP cells, according to methods previously described. See Hillier S M, Maresca K P, Lu G, Merkin R D, Marquis J C, Zimmerman C N, Eckelman W C, Joyal J L, Babich J W. 99mTc-Labeled Small-Molecule Inhibitors of Prostate-Specific Membrane Antigen for Molecular Imaging of Prostate Cancer. J. Nucl. Med. 2013, 54, 1369-1376, incorporated herein by reference. The LNCaP cells were plated 48 hours prior to the experiment to achieve a density of approximately 5×10^5 cells/well (in triplicate) in RPMI-1640 medium supplemented with 0.25% bovine serum albumin prior to performing the assay. LNCaP cells were incubated for 1 hour with 1 nM ^99mTc-MIP-1427 in serum free RPMI-1640 medium in the presence of 1-10,000 nM test compounds. Radioactive incubation media was then removed by pipette and the cells were washed twice using 1 mL ice-cold HEPES buffer. Cells were harvested from the plates and transferred to tubes for radioactive counting using a Packard Cobra II Gamma Counter. IC50 values were determined by non-linear regression using GraphPad Prism software.

LNCaP xenograft tumor [2] = assay: microPET/CT imaging of LNCaP xenograft tumor-bearing mice; format: in vivo; conditions: for Max. LNCaP Tumor Uptake: image derived calculation of tumor uptake (microPET/CT), at time of maximum uptake; for Time p.i. of max. LNCaP tumor uptake: microPET/CT imaging at 1, 2, 4, 6 h; for Route of clearance / excretion: from microPET/CT images
Protocol: (§1) Inoculation of mice with xenografts. All animal studies were approved by the Institutional Animal Care and Use Committee of Weill Cornell Medicine and were undertaken in accordance with the guidelines set forth by the USPHS Policy on Humane Care and Use of Laboratory Animals. Animals were housed under standard conditions in approved facilities with 12 h light/dark cycles. Food and water was provided ad libitum throughout the course of the studies. Male inbred athymic nu/nu mice were purchased from The Jackson Laboratory. For inoculation in mice, LNCaP cells were suspended at 4×10^7 cells/mL in a 1:1 mixture of PBS:Matrigel (BD Biosciences). Each mouse was injected in the left flank with 0.25 mL of the cell suspension. The mice were imaged when the tumors reached approximately 200-400 mm^3, while biodistributions were conducted when tumors were in the range 100-400 mm^3.
Imaging. […] Specific activity was greater than […]. The mice were imaged by pPET/CT (Inveon™; Siemens Medical Solutions, Inc.) at 1 h, 2 h, 4 h, and 6 h post-injection ([^18F]fluorinated compounds) or 1 h and 3 h post-injection ([^68Ga]Ga-PSMA-HBED-CC). Total acquisition time was thirty minutes, and a CT scan was obtained either immediately before or immediately after the acquisition for both anatomical co-registration and attenuation correction. The data were reconstructed using the commercial Inveon™ software supplied by the vendor. Tumor uptake was estimated by drawing a region of interest (ROI).

LNCaP xenograft tumor [3] = assay: Ex vivo biodistribution in LNCaP xenograft tumor-bearing mice; conditions: for Tumor uptake / Max. LNCaP Tumor Uptake: n=5; for Tumor uptake relative to [68Ga]Ga-PSMA-HBED-CC: at the time of maximum tumor uptake; for Time p.i. of max. LNCaP tumor uptake: biodistribution at 1, 2, 4 h; for Max. LNCaP Tumor Uptake: biodistribution
Protocol: as §1
Biodistribution. LNCaP xenograft tumor-bearing mice (n=5 per time point) were injected via the tail vein with a bolus injection of 370 kBq (10 μCi) of either [^18F]RPS-040 or [^18F]RPS-041. The specific activity of the compounds was […], respectively. The mice were euthanized by asphyxiation under isofluorane at 1 h, 2 h and 4 h post injection. An additional set of mice (n=5) was co-administered [^18F]RPS-040 (370 kBq; 10 μCi) and 2-PMPA (approx. 250 μg; 10 mg/kg) and sacrificed at 1 h post injection to determine the uptake specificity. A full biodistribution study was conducted on all mice, and tissues were excised, weighed and counted in an automated γ-counter. Tissue time-activity values were expressed as percentage injected dose per gram of tissue (% ID/g). Statistical comparisons were performed using the standard Student's t-test for a 95% confidence interval.

LNCaP tumor [4] = conditions: reported study, cited from earlier work; for Tumor uptake (Max. LNCaP Tumor Uptake): 3 h post injection
PSMA = molecular target: T2, PSMA (Homo sapiens, UniProt Q04609); conditions: for PSMA, competitive binding assay using LNCaP cells, literature value, cited from earlier work
T2 construct: host or cells: LNCaP

[5] = 1 h post injection, co-administered with 2-PMPA (blocked)
[6] = listed as [^68Ga]Ga-PSMA-HBED-CC

T1 sequence (Q04609 whole entry): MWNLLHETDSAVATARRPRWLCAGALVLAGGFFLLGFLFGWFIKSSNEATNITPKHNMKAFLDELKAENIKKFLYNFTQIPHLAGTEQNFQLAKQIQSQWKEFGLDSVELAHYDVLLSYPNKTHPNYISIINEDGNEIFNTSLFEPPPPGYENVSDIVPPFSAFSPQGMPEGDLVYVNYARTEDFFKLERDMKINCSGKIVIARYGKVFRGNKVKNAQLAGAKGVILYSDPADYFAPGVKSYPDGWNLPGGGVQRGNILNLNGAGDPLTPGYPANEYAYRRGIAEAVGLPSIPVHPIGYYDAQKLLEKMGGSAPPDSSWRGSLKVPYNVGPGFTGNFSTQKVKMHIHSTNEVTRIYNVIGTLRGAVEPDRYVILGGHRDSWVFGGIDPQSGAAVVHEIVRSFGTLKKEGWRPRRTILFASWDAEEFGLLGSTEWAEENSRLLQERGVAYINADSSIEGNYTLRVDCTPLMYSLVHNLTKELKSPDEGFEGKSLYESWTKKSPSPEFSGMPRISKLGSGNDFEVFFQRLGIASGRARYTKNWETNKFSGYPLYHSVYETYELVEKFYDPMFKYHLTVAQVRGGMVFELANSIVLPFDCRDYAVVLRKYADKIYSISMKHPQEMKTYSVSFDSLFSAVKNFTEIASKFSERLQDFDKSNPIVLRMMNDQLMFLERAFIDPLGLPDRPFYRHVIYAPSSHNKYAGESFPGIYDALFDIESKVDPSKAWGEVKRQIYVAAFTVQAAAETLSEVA
T2 sequence (Q04609 whole entry): as above

SMILES: O=C(O)CC[C@H](NC(=O)N[C@@H](CCCCNC(=O)Nc1ccc(I)cc1)C(=O)O)C(=O)O [MIP-1095]
- Max. LNCaP Tumor Uptake (LNCaP tumor [1]; 4 h p.i.): 34.3 ± 12.7^a % ID/g
- Time p.i. of max. LNCaP tumor uptake (LNCaP tumor [1]): 4 h
- IC50 (PSMA on LNCaP cells): 0.3 nM

SMILES: O=C(O)CC[C@H](NC(=O)N[C@@H](CCCCNC(=O)Nc1ccc(OCc2cn(CCF)nn2)cc1)C(=O)O)C(=O)O [RPS-038, (((S)-1-Carboxy-5-(3-(4-((1-(2-fluoroethyl)-1H-1,2,3-triazol-4-yl)methoxy)phenyl)ureido)pentyl)carbamoyl)-L-glutamic acid]
- Max. LNCaP Tumor Uptake (LNCaP xenograft tumor [2]): 8.87 ± 0.64^c % ID/g
- Time p.i. of max. LNCaP tumor uptake (LNCaP xenograft tumor [2]): 2 h
- IC50 (PSMA on LNCaP cells): 21.3 nM

SMILES: O=C(O)CC[C@H](NC(=O)N[C@@H](CCCCNC(=O)Nc1ccccc1OCc1cn(CCF)nn1)C(=O)O)C(=O)O [RPS-039, (((S)-1-Carboxy-5-(3-(2-((1-(2-fluoroethyl)-1H-1,2,3-triazol-4-yl)methoxy)phenyl)ureido)pentyl)carbamoyl)-L-glutamic acid]
- Route of clearance / excretion (LNCaP xenograft tumor [2]): clearance via the hepatobiliary pathway in addition to renal clearance
- Max. LNCaP Tumor Uptake (LNCaP xenograft tumor [2]): 5.87±0.27 % ID/g and 5.89 ± 0.27^c % ID/g
- Time p.i. of max. LNCaP tumor uptake (LNCaP xenograft tumor [2]): 2 h
- IC50 (PSMA on LNCaP cells): 14 nM

SMILES: O=C(O)CC[C@H](NC(=O)N[C@@H](CCCCNC(=O)Nc1cccc(-c2cn(CCF)nn2)c1)C(=O)O)C(=O)O [RPS-040, (((S)-1-Carboxy-5-(3-(3-(1-(2-fluoroethyl)-1H-1,2,3-triazol-4-yl)phenyl)ureido)pentyl)carbamoyl)-L-glutamic acid]
- Tumor-to-blood ratio (LNCaP xenograft tumor [3]; 1 h post injection): 28.8±8.06
- Tumor-to-blood ratio relative to [68Ga]Ga-PSMA-HBED-CC (LNCaP xenograft tumor [3]; 1 h post injection): three-fold greater
- Tumor-to-kidney ratio (contrast) relative to [68Ga]Ga-PSMA-HBED-CC (LNCaP xenograft tumor [3]; 1 h post injection): ten
- Uptake in the kidneys (LNCaP xenograft tumor [3]; [5]): 5.95±1.65 % ID/g
- Uptake in the spleen (LNCaP xenograft tumor [3]; [5]): 0.32±0.05 % ID/g
- Tumor uptake (LNCaP xenograft tumor [3]; [5]): 1.75±0.15 % ID/g
- Uptake in the kidneys (LNCaP xenograft tumor [3]; 1 h post injection, unblocked): 74.24±10.71 % ID/g
- Uptake in the spleen (LNCaP xenograft tumor [3]; 1 h post injection, unblocked): 4.97±1.55 % ID/g
- Tumor uptake (LNCaP xenograft tumor [3]; 1 h post injection, unblocked): 12.69±1.56 % ID/g
- Uptake in the kidneys (LNCaP xenograft tumor [3]; 2 h post injection): 60.94±8.06 % ID/g
- Uptake in the liver (LNCaP xenograft tumor [3]; 2 h post injection): 4.72±0.93 % ID/g
- Uptake in the spleen (LNCaP xenograft tumor [3]; 2 h post injection): 3.23±1.26 % ID/g
- Tumor-to-blood ratio (LNCaP xenograft tumor [3]; 4 h post injection): 92.93±75.67
- Tumor uptake relative to [68Ga]Ga-PSMA-HBED-CC (LNCaP xenograft tumor [3]): more than two-fold greater
- Time p.i. of max. LNCaP tumor uptake (LNCaP xenograft tumor [3]): 2 h
- Max. LNCaP Tumor Uptake (LNCaP xenograft tumor [3]; 2 h post injection): 14.30 ± 2.49^ % ID/g
- Max. LNCaP Tumor Uptake (LNCaP xenograft tumor [3]; 2 h post injection, listed as [^18F]RPS-040): 14.30±2.49 % ID/g
- Max. LNCaP Tumor Uptake (LNCaP xenograft tumor [2]): 14.30 % ID/g
- IC50 (PSMA on LNCaP cells): 7 nM

SMILES: O=C(O)CC[C@H](NC(=O)N[C@@H](CCCCNC(=O)Nc1ccc(-c2cn(CCF)nn2)cc1)C(=O)O)C(=O)O [RPS-041, (((S)-1-Carboxy-5-(3-(4-(1-(2-fluoroethyl)-1H-1,2,3-triazol-4-yl)phenyl)ureido)pentyl)carbamoyl)-L-glutamic acid]
- Tumor-to-blood ratio (LNCaP xenograft tumor [3]; 1 h post injection): 20.78±7.87
- Tumor-to-blood ratio relative to [68Ga]Ga-PSMA-HBED-CC (LNCaP xenograft tumor [3]; 1 h post injection): more than two-fold
- Tumor-to-kidney ratio (contrast) relative to [68Ga]Ga-PSMA-HBED-CC (LNCaP xenograft tumor [3]; 1 h post injection): twelve-fold greater
- Contrast (tumor-to-background) relative to [18F]RPS-040 (LNCaP xenograft tumor [3]; 2 h post injection): two-fold greater
- Uptake in the kidneys (LNCaP xenograft tumor [3]; 2 h post injection): 23.93±5.45 % ID/g
- Uptake in the liver (LNCaP xenograft tumor [3]; 2 h post injection): 2.51±0.21 % ID/g
- Uptake in the spleen (LNCaP xenograft tumor [3]; 2 h post injection): 1.13±0.47 % ID/g
- Tumor-to-blood ratio (LNCaP xenograft tumor [3]; 4 h post injection): 118.4±69.4
- Tumor uptake relative to [68Ga]Ga-PSMA-HBED-CC (LNCaP xenograft tumor [3]): nearly two-fold greater
- Time p.i. of max. LNCaP tumor uptake (LNCaP xenograft tumor [3]): 2 h
- Max. LNCaP Tumor Uptake (LNCaP xenograft tumor [3]; 2 h post injection): 10.86 ± 1.03^ % ID/g
- Max. LNCaP Tumor Uptake (LNCaP xenograft tumor [3]; 2 h post injection, listed as [^18F]RPS-041): 10.86±1.03 % ID/g
- Max. LNCaP Tumor Uptake (LNCaP xenograft tumor [2]): 12.51 % ID/g
- IC50 (PSMA on LNCaP cells): 3.2 nM

SMILES: O=C(O)CC[C@H](NC(=O)N[C@@H](CCCCNC(=O)Nc1ccccc1-c1cn(CCF)nn1)C(=O)O)C(=O)O [RPS-042, (((S)-1-Carboxy-5-(3-(2-(1-(2-fluoroethyl)-1H-1,2,3-triazol-4-yl)phenyl)ureido)pentyl)carbamoyl)-L-glutamic acid]
- Route of clearance / excretion (LNCaP xenograft tumor [2]): clearance via the hepatobiliary pathway in addition to renal clearance
- Max. LNCaP Tumor Uptake (LNCaP xenograft tumor [2]): 10.06 ± 1.33^c % ID/g
- Time p.i. of max. LNCaP tumor uptake (LNCaP xenograft tumor [2]): 2 h
- IC50 (PSMA on LNCaP cells): 10.2 nM

SMILES: O=C(O)CC[C@H](NC(=O)N[C@@H](CCCCNC(=O)Nc1cccc(OCc2cn(CCF)nn2)c1)C(=O)O)C(=O)O [RPS-043, (((S)-1-Carboxy-5-(3-(3-((1-(2-fluoroethyl)-1H-1,2,3-triazol-4-yl)methoxy)phenyl)ureido)pentyl)carbamoyl)-L-glutamic acid]
- Max. LNCaP Tumor Uptake (LNCaP xenograft tumor [2]): 9.04 ± 1.88^c % ID/g
- Time p.i. of max. LNCaP tumor uptake (LNCaP xenograft tumor [2]): 2 h
- IC50 (PSMA on LNCaP cells): 36.5 nM

SMILES: O=C([O-])CN(CCN(CC(=O)[O-])Cc1cc(CCC(=O)NCCCCCC(=O)NCCCC[C@H](NC(=O)N[C@@H](CCC(=O)O)C(=O)O)C(=O)O)ccc1[O-])Cc1cc(CCC(=O)O)ccc1[O-].[68Ga+3].[OH3+] [^68Ga-PSMA-HBED-CC]
- Activity in the kidney (LNCaP tumor [4]; 1 h): 314.44±90.61 % ID/g
- Activity in the spleen (LNCaP tumor [4]; 1 h): 31.73±14.09 % ID/g
- Tumor uptake (LNCaP tumor [4]; 1 h post injection): 5.81±1.67 % ID/g
- Activity in the kidney (LNCaP tumor [4]; 3 h): 207.97±58.38 % ID/g
- Activity in the spleen (LNCaP tumor [4]; 3 h): 13.85±3.53 % ID/g
- Tumor uptake (Max. LNCaP Tumor Uptake) (LNCaP tumor [4]): 6.27 ± 1.44 % ID/g
- Tumor uptake (Max. LNCaP Tumor Uptake) (LNCaP tumor [4]; [6]): 6.27±1.44 % ID/g
- Time p.i. of max. LNCaP tumor uptake (LNCaP tumor [4]; 1 h and 3 h): 3 h
- IC50 (PSMA): 24.3 ± 2 nM
- IC50 (PSMA; [6]): ~24 nM
- Uptake in the liver or intestine (LNCaP xenograft tumor [2]; microPET/CT, 1 h post injection): No uptake
